Measured values reported in article PMC5239439, “Virtual screening, optimization, and identification of a novel specific PTP-MEG2 Inhibitor with potential therapy for T2DM” (Oncotarget, 2016).
pIC50: −log10 of the molar value. Read-outs that look alike come from different tables or passages of the source.

Tests used:
Assay type in all cases: biochemical
PTP-MEG2 = target: T1, PTP-MEG2 (Homo sapiens, UniProt P43378); test: Enzymatic assay with pNPP as substrate, PTP-MEG2; conditions: pH 6.0, 37°C 30 min
T1 construct: host or cells: E. coli
T1 sequence (P43378 1-593): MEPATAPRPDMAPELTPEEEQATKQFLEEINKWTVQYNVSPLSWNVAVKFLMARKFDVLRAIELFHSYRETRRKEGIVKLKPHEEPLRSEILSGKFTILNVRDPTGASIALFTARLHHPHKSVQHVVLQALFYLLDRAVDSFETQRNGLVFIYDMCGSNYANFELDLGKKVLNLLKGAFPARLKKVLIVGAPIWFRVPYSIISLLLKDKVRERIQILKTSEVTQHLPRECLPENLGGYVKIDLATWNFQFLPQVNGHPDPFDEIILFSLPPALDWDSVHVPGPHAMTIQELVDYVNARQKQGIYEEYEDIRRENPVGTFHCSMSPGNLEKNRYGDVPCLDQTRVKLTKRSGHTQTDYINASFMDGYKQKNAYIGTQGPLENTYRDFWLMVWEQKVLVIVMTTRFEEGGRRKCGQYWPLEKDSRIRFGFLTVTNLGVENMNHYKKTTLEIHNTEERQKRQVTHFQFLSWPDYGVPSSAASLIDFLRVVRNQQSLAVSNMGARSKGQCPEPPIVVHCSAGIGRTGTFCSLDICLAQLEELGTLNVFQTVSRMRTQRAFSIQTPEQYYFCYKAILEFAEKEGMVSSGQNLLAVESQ
Experimental: (§1) Briefly, pNPP was hydrolyzed by PTPs to give para-nitrophenol. Para-nitrophenol converts into para-nitrophenolate (pNP), measured with a spectrophotometer after stopping solution was added. The regents and chemicals used in this assay are as follows: Ni-NTA labeled human recombinant PTPs expressed in E coli; de-phosphorylation assay buffer (50 mM citrate (pH 6.0), 0.1 M NaCl, 1 mM EDTA and 1 mM dithiothreitol (DTT)); substrate (2 mM pNPP) in assay buffer; stopping solution (0.2 M sodium hydroxide). PTPs and test-compounds with geometrically increasing concentrations were mixed in 50 μL buffer in each well of a 96-well plate. An equivalent volume of buffer without PTPs was used as blank control. After pre-incubation for 15 min at room temperature, the substrate (50 μL) was added into each well and incubated at 37°C for 30 min. Stopping buffer was poured into each well on ice and the OD value was read at 405 nm against blank.

TCPTP = target: T2, TCPTP (Homo sapiens, UniProt P17706); test: Enzymatic assay with pNPP as substrate, TCPTP
T2 construct: host or cells: E. coli
T2 sequence (P17706 1-415): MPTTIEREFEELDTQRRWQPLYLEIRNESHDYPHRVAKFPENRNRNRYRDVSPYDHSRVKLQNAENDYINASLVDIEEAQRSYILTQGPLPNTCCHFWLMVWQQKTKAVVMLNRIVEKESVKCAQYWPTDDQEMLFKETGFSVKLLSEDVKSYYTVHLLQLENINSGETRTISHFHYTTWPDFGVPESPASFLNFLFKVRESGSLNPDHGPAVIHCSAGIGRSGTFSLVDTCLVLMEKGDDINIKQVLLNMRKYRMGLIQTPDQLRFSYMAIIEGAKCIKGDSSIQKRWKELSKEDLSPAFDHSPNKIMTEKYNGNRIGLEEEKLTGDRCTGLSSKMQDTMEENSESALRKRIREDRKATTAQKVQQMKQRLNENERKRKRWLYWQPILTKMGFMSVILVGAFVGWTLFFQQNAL
Experimental: as §1

PTP1B = target: T3, PTP1B (Homo sapiens, UniProt P18031); test: Enzymatic assay with pNPP as substrate, PTP1B; conditions: pH 6.0, 37°C 30 min
T3 construct: host or cells: E. coli
T3 sequence (P18031 1-435): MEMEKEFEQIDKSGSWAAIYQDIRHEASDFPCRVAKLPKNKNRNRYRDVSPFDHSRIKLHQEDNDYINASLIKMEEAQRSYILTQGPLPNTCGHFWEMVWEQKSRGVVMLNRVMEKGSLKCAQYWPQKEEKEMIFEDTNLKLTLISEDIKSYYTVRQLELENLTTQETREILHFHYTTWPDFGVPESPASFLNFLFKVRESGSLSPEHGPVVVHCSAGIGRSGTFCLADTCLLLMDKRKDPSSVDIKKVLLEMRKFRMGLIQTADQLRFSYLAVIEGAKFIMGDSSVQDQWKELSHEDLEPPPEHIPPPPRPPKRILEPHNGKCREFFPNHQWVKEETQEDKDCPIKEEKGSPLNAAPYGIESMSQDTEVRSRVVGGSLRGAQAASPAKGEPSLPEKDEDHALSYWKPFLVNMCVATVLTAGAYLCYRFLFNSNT
Experimental: as §1

pIC50 (PTP-MEG2) | pIC50 (TCPTP) | pIC50 (PTP1B) | pIC50 (TCPTP; pNPP substrate, pH 6.0, 37°C 30 min, read-out: IC50 TCPTP) | SMILES
5.49 | < 4.60 | < 4.60 | – | O=C(CSc1nc2ccccc2s1)Nc1cccc2ccccc12 [Compound 4a, 2-(benzo[d]thiazol-2-ylthio)-N-(naphthalen-1-yl)acetamide]
5.37 | – | < 4.60 | < 4.60 | O=C(CCCSc1nc2ccccc2s1)Nc1cccc2ccccc12 [Compound 4b, 4-(benzo[d]thiazol-2-ylthio)-N-(naphthalen-1-yl)butanamide]
